Common to all, as to type: in vivo, rat
The test system of assay [1] is uterus weight. Description: Uterus growth test on rats p.o. for estrogenic action. As to conditions: ovariectomized rats, 3-day treatment. The method, then:
The tests below were all performed on rats according to known methods. Uterus growth test p.o. for estrogenic action: Stimulation of uterus weight with the test compound, vehicle: s.c. benzylbenzoate/castor oil (1+4); p.o. NaCl-myrj; 3-day treatment of ovariectomized animals; parameters: uterus weight and endometrial epithelium height; vaginal smear negative; reference compound: estradiol 0.1 μg.

Assay [2] concerns dexamethasone-induced thymus suppression. The experiment in a line: Antithymolysis test on rats p.o. on antiglucocorticoid action. An excerpt: The tests below were all performed on rats according to known methods. Antithymolysis test p.o. on antiglucocorticoid action: See, for example, EP-A 0 283 428.
For assay [3], the system named is rats. Description: Abortive test on rats s.c. and p.o. An excerpt:
(§1) The tests below were all performed on rats according to known methods.
Abortive test s.c. and p.o.: See, for example, EP-A 0 283 428.

Assay [4] has as its system prostate weight. The experiment in a line: Androgen test on rats p.o. (stimulation of the prostate weight). The method, then:
as §1
Androgen test p.o.: Stimulation of the prostate weight with the test compound, vehicle: s.c. benzylbenzoate, castor oil (1+4); p.o. NaCl-myrj; reference compound testosterone propionate. Virtually no stimulation of the prostate weight is observed up to a dose of 10 mg of test compound/animal/day.

In the case of “6′-Acetyl-9,11α-dihydro-17β-hydroxy-17α-(1,1,2,2,2-pentafluoroethyl)-4′H-naphth[3′,2′,1′:10,9,11]estr-4-en-3-one [Compound C]”, the “Uterus growth test on rats p.o. (% uterus weight stimulation)” value in assay [1] (dose 10 mg/animal/day) is reported as “(4.4) %”. The “Antithymolysis test on rats p.o. (% elimination of dexamethasone-induced thymus suppression)” value in assay [2] (dose 2.2 mg/animal/day) is listed as “(7.2) %”; in assay [2] (dose 6.7 mg/animal/day), “(31.6) %”; in assay [2] (dose 22 mg/animal/day), “(18.8) %”. Besides, the “Abortive test on rats p.o. (n abortion/n total)” value in assay [3] (dose 0.003 mg/animal/day), in assay [3] (dose 0.01 mg/animal/day), in assay [3] (dose 0.03 mg/animal/day), in assay [3] (dose 0.1 mg/animal/day) and in assay [3] (dose 0.3 mg/animal/day) was “(4/4)” throughout. Moreover, the “Abortive test on rats s.c. (n abortion/n total)” value in assay [3] (dose 0.03 mg/animal/day), in assay [3] (dose 0.1 mg/animal/day) and in assay [3] (dose 0.3 mg/animal/day) was “(4/4)” each time.

For the compound `CC(=O)c1ccc([C@H]2C[C@@]3(C)[C@@H](CC[C@@]3(O)C(F)(F)C(F)(F)F)[C@@H]3CCC4=CC(=O)CCC4=C32)cc1` [B, 11β-(4-Acetylphenyl)-17β-hydroxy-17α-(1,1,2,2,2-pentafluoroethyl)estra-4,9-dien-3-one], the figures for the “Androgen test on rats p.o. (% prostate stimulation)” value in assay [4] (dose 1 mg/animal/day) and in assay [4] (dose 3 mg/animal/day) were “(2.1) %” and “(0) %”, respectively. Moreover, the “Uterus growth test on rats p.o. (% uterus weight stimulation)” value in assay [1] (dose 10 mg/animal/day) is “(2.6) %”. The “Antithymolysis test on rats p.o. (% elimination of dexamethasone-induced thymus suppression)” value in assay [2] (dose 1 mg/animal/day) is given as “(1.2) %”; in assay [2] (dose 3 mg/animal/day), “(21.6) %”; in assay [2] (dose 10 mg/animal/day), “(18.2) %”. The “Abortive test on rats p.o. (n abortion/n total)” value in assay [3] (dose 0.03 mg/animal/day), in assay [3] (dose 0.1 mg/animal/day) and in assay [3] (dose 0.3 mg/animal/day) was “(4/4)” throughout. Moreover, the “Abortive test on rats s.c. (n abortion/n total)” value in assay [3] (dose 0.03 mg/animal/day), in assay [3] (dose 0.1 mg/animal/day) and in assay [3] (dose 0.3 mg/animal/day) was “(4/4)” throughout.

Regarding `CC(=O)c1ccc(C2CC3(C)C(CCC3(O)C(F)(F)C(F)(F)F)C3CCC4=CC(=O)CCC4C23)cc1` (stereo not drawn) [Compound A, 11β-(4-Acetylphenyl)-17β-hydroxy-17α-(1,1,2,2,2-pentafluoroethyl)estr-4-en-3-one], the “Androgen test on rats p.o. (% prostate stimulation)” value in assay [4] (dose 1 mg/animal/day) was “(4.8) %”; in assay [4] (dose 3 mg/animal/day), “(3.3) %”. Also, the “Uterus growth test on rats p.o. (% uterus weight stimulation)” value in assay [1] (dose 10 mg/animal/day) is “(3.7) %”. Besides, the “Antithymolysis test on rats p.o. (% elimination of dexamethasone-induced thymus suppression)” value was “(6.0) %” in assay [2] (dose 1 mg/animal/day), “(7.4) %” in assay [2] (dose 3 mg/animal/day) and “(11.5) %” in assay [2] (dose 10 mg/animal/day). In addition, the “Abortive test on rats p.o. (n abortion/n total)” value in assay [3] (dose 0.03 mg/animal/day), in assay [3] (dose 0.1 mg/animal/day) and in assay [3] (dose 0.3 mg/animal/day) was “(4/4)” each time. Moreover, the “Abortive test on rats s.c. (n abortion/n total)” value in assay [3] (dose 0.03 mg/animal/day), in assay [3] (dose 0.1 mg/animal/day) and in assay [3] (dose 0.3 mg/animal/day) was “(4/4)” each time.

On to `CC#C[C@]1(O)CC[C@H]2[C@@H]3CCC4=CC(=O)CCC4=C3[C@@H](c3ccc(N(C)C)cc3)C[C@@]21C` [D, 11β-[4-(Dimethylamino)phenyl]-17β-hydroxy-17α-(1-propinyl)estra-4,9-dien-3-one, reference compound], for which the figures for the “Androgen test on rats p.o. (% prostate stimulation)” value in assay [4] (dose 1 mg/animal/day), in assay [4] (dose 3 mg/animal/day) and in assay [4] (dose 10 mg/animal/day) were “(1.6) %”, “(2.9) %” and “(7.2) %”, respectively. In addition, the “Uterus growth test on rats p.o. (% uterus weight stimulation)” value in assay [1] (dose 10 mg/animal/day) is reported as “(6.4) %”. For the same compound, the “Antithymolysis test on rats p.o. (% elimination of dexamethasone-induced thymus suppression)” value in assay [2] (dose 1 mg/animal/day) is “(19) %”; in assay [2] (dose 3 mg/animal/day), “(79) %”; in assay [2] (dose 10 mg/animal/day) it was “(76) %”.

`C=C1CCOC12CCC1C3CCC4=CC(=O)CCC4=C3C(c3ccc(C(C)=O)cc3)CC12C` (stereo not drawn) [E, 11β-(4-Acetylphenyl)-19,24-dinor-17,23-epoxy-17α-chola-4,9,20-trien-3-one, reference compound]: the “Androgen test on rats p.o. (% prostate stimulation)” value in assay [4] (dose 1 mg/animal/day) was “(4.0) %”; in assay [4] (dose 3 mg/animal/day) it was “(5.6) %”; in assay [4] (dose 10 mg/animal/day) it was “(4.4) %”. For the same compound, the “Uterus growth test on rats p.o. (% uterus weight stimulation)” value in assay [1] (dose 3 mg/animal/day) is listed as “(1.3) %”; in assay [1] (dose 10 mg/animal/day), “(2.4) %”. For the same compound, the “Antithymolysis test on rats p.o. (% elimination of dexamethasone-induced thymus suppression)” value in assay [2] (dose 1 mg/animal/day) is “(4.3) %”; in assay [2] (dose 3 mg/animal/day), “(19.1) %”; in assay [2] (dose 10 mg/animal/day), “(44.7) %”. Besides, the “Abortive test on rats p.o. (n abortion/n total)” value in assay [3] (dose 0.03 mg/animal/day) is on record as “(0/4)”; in assay [3] (dose 0.1 mg/animal/day), “(4/4)”; in assay [3] (dose 0.3 mg/animal/day), “(4/4)”. Further, the “Abortive test on rats s.c. (n abortion/n total)” value is listed as “(0/4)” in assay [3] (dose 0.03 mg/animal/day), “(3/4)” in assay [3] (dose 0.1 mg/animal/day) and “(4/4)” in assay [3] (dose 0.3 mg/animal/day).
